The record followed here is PubChem BioAssay AID2384 (Southern Research Specialized Biocontainment Screening …, 2010).

Where “and” joins values, the source holds several entries; their conditions need not be identical. Identical values can stand only once. A value given as a limit tells only on which side of the number the result lay.

By IC50 is commonly meant the concentration that inhibits the measured activity by half.

For the assay, the system named is S. typhi GFP reporter counter-screen, fluorescence, 4 h. In words: inhibitors in S. typhi counter-screen strain, dose response, counter-screen for PhoP regulon inhibitor project, fluorescence, 4 h (AID 2384). (In general: The purpose of a counterscreen is to sort out artefacts and off-target activity.)
Consider `Cc1ccc2c(c1)C1CN(C)CCC1N2Sc1ccccc1[N+](=O)[O-]` (stereo not drawn), for which the IC50 is 37.9 µM.

Turning to `O=c1c2c([nH]c3ccccc13)CCCCC2`, the IC50 was 113 µM.

`O=C(Cc1ccccc1)NNC(=S)NC(=O)c1cccs1`: the IC50 is 32.3 µM.

With `CN1CCN(C(c2ccc(Cl)cc2)c2cc(Cl)c3cccnc3c2O)CC1` (stereo not drawn), the IC50 was 19.7 µM.

As to `CC(/C=N/Nc1nc2ccccc2[nH]1)=C\c1ccccc1`, the IC50 is 77.8 µM.

As for `CCN1CCCC1CNC(=O)C1CCN(Cc2nc(-c3cccc(Br)c3)oc2C)CC1` (stereo not drawn), the IC50 was 33.3 µM.

As to `O=C(N/N=C/c1cc([N+](=O)[O-])ccc1O)C1CC1`, the concentration for half-maximal inhibition (IC50) is 20.2 µM.

For `CCc1ccc(CNCc2ccc(OCC(O)CN(C)Cc3ccccc3)cc2)nc1` (stereo not drawn), the IC50 was 67.6 µM.

`C#CCOCCOCCOCCNc1nc(N2CCN(C(=O)C(Cc3cc4ccccc4[nH]3)n3cc(C(N)C(C)CC)nn3)CC2)nc(N2CCN(C(=O)C(Cc3cc4ccccc4[nH]3)n3cc(C(N)C(C)CC)nn3)CC2)n1` (stereo not drawn): the IC50 is 134 µM.

For `CCn1cc(C(=O)O)c(=O)c2ccc(C)nc21`, the IC50 is 83.7 µM.

With `OC(CNCc1ccco1)Cn1c2ccc(Br)cc2c2cc(Br)ccc21` (stereo not drawn), the IC50 is 18.9 µM.

Take `CCCN(CCC)CCNC(=O)C1CCN(Cc2nc(-c3ccc(Cl)cc3)oc2C)CC1`: the IC50 is 57.1 µM.

For the compound `CC(=O)NC(c1cccs1)c1cc([N+](=O)[O-])c2cccnc2c1O` (stereo not drawn), the IC50 is 25.4 µM.

Turning to `O=C(NC1CCCCC1)c1ccc([N+](=O)[O-])o1`, the IC50 was 119 µM.

With `Cc1ccc(Nc2c3c(nc4ccccc24)CCC3)cc1`, the concentration for half-maximal inhibition (IC50) was 25.8 µM.

For `CCCCCCOc1ccc(CN2CCN(CC)CC2)cc1`, the IC50 was 100 µM.

As for `c1ccc2c(c1)OC(CCCN1CCCCC1)c1ccccc1S2` (stereo not drawn), the concentration for half-maximal inhibition (IC50) is 76.4 µM.

On to `c1ccc(CN2CCC(N3CCN(Cc4ccc5c(c4)OCO5)CC3)CC2)cc1`, for which the IC50 was 150 µM.

`CC(c1cccnc1)N(CCN(C)C)C(=O)Nc1ccc(Cl)c(Cl)c1` (stereo not drawn): the IC50 is 98.4 µM.

For `CN(C)CCOC(=O)c1sc2ccccc2c1Cl`, the IC50 was 125 µM.

On to `Cc1ccc(C(=O)N/N=C\c2ccc([N+](=O)[O-])s2)cn1`, for which the IC50 was 19.8 µM.

For `CCN1CCN(C(=O)c2cc3ccc(OC)cc3[nH]2)CC1`, the IC50 is 34.1 µM.

With `CCCCCc1ccc(OCCCC[n+]2ccccc2)c(CCCCC)c1`, the IC50 is 36.3 µM.

Take `O=C1c2cccc3cccc(c23)C(=O)C1(O)O`: the IC50 was 17 µM.

In the case of `COc1ccc(C(=O)CCN2CCc3cc(OC)c(OC)cc3C2)cc1`, the IC50 was 120 µM.

Take `Clc1ccc(CN2C3=NCCN3c3ccccc32)cc1`: the IC50 is 42.8 µM.

`CCn1cc(C(=O)O)c(=O)c2cc(F)c(N3CCN(C)CC3)cc21`: the IC50 is 1.23 µM.

As to `COc1ccc(Nc2cc(C)nc(NCc3ccccc3)n2)cc1`, the IC50 is 38.5 µM.

For `NC1=NC[C@H](Cc2ccc(O)cc2)N1CCCCC1CCCCC1`, the IC50 was 13.9 µM.

For the compound `Cc1ccc(Nc2cc(C)c3c(O)cccc3n2)cc1C`, the IC50 is 11.7 µM.

`COc1ccc(CCN2CCC(Nc3nc4ccccc4n3Cc3ccc(F)cc3)CC2)cc1`: the concentration for half-maximal inhibition (IC50) was 29.4 µM.

Take `O=C(Nc1cccc(Br)c1)c1cc2ccccc2o1`: the IC50 was 83.3 µM.

On to `Nc1[nH]ncc1-c1ccccc1`, for which the IC50 was 48 µM.

Consider `C#CCOCCOCCOCCNc1nc(N2CCN(C(=O)CCCCCCCCCCNC(=O)[C@H]([C@@H](C)CC)n3cc(CCCCN=C(N)N)nn3)CC2)nc(N2CCN(C(=O)CCCCCCCCCCNC(=O)[C@H](CO)n3cc(CCCCCN)nn3)CC2)n1`, for which the IC50 is 35.2 µM.

With `O=C(Cn1cc[n+](CC(=O)c2ccc(Cl)cc2Cl)c1)c1ccc(Cl)cc1Cl`, the IC50 was 27.6 µM.

For `O=C(N[C@H](CO)[C@H](O)c1ccc([N+](=O)[O-])cc1)C(Cl)Cl`, the IC50 is 1.57 µM.

For `Cc1cc(C2CCCCC2)n(O)c(=O)c1`, the IC50 is 13.7 µM.

Take `CNCCCCOc1ccc(C(C)(C)C)cc1Cl`: the IC50 was 58.2 µM.

With `Oc1ccc(Cl)cc1Cc1cc(Cl)ccc1O`, the IC50 is 27.7 µM.

Consider `COc1ccc(C(=O)NC(=S)NNC(=O)c2cnccn2)cc1`, for which the IC50 was 47.1 µM.

In the case of `CCCCNC1=CC(=O)C(=O)c2ccccc21`, the IC50 is 72.8 µM.

In the case of `O=C(N/N=C\c1ccc(Cl)s1)c1cccs1`, the IC50 is 90.8 µM.

For the compound `COc1ccc(Nc2c3ccccc3nc3ccccc23)cc1`, the IC50 was 23.7 µM.

As to `C#CCOCCOCCOCCNc1nc(N2CCN(C(=O)[C@H](CCCCN)n3cc([C@@H](N)CC(C)C)nn3)CC2)nc(N2CCN(C(=O)[C@H](Cc3cc4ccccc4[nH]3)n3cc([C@@H](N)Cc4ccc(O)cc4)nn3)CC2)n1`, the IC50 is 26.9 µM.

Consider `CC1(C)N=C(N)NC(Nc2cccc(Br)c2)=N1`, for which the IC50 is 72.5 µM.

Take `NC1=NC[C@H](Cc2ccc(O)cc2)N1CCC12CC3CC(CC(C3)C1)C2`: the IC50 was 37.7 µM.

On to `CNC[C@H](Cc1ccccc1)NC[C@@H](Cc1cccc2ccccc12)NCCc1ccc(C)cc1`, for which the IC50 was 14.8 µM.

Take `Cc1ccc(C(C[N+](=O)[O-])n2nc(C)cc2C)cc1` (stereo not drawn): the IC50 is 27.1 µM.

Turning to `O=C(N/N=C/c1ccccc1O)C1SCCCS1`, the IC50 is 72.9 µM.

For `O=C1CSC(=S)N1c1cccc(O)c1`, the IC50 is 59.9 µM.

Take `CN1CCN(CC(=O)N2CCn3c4c(c5cc(C6CCCCC6)ccc53)CCCC42)CC1` (stereo not drawn): the IC50 was 36.9 µM.

Take `CCCCCOc1ccc(CSC(=N)N)cc1[N+](=O)[O-]`: the concentration for half-maximal inhibition (IC50) is 30.4 µM.

With `O=C(Nc1nc(-c2ccccn2)cs1)c1ccc(Cl)s1`, the IC50 is 21.3 µM.

Turning to `Cc1cc(NC(=O)c2ccc3[nH]c(C)c(C)c3c2)ccn1`, the half-maximal inhibitory concentration (IC50) is 65.5 µM.

As for `O=C(Cn1nc(CNc2ccc(Cl)cc2)[n+]2c1CCCCC2)c1ccc(Br)cc1`, the IC50 was 57.2 µM.

As to `O=C(CCN1CCN(C(=O)c2ccccc2)CC1)c1ccc(Br)cc1`, the IC50 is 81.6 µM.

For the compound `c1ccc2c(c1)C(=NC1CCCCC1)NC2=NC1CCCCC1`, the IC50 is 77.2 µM.

On to `Cc1nonc1C(=O)N/N=C/c1ccc([N+](=O)[O-])o1`, for which the IC50 is 51.9 µM.

For the compound `CCCCCSc1cc(OC)c(CCNC)cc1OC`, the half-inhibitory concentration (IC50) is 52.2 µM.

Consider `C#CCOCCOCCOCCNc1nc(N2CCN(C(=O)[C@H](CCCCN)n3cc([C@@H](N)CO)nn3)CC2)nc(N2CCN(C(=O)[C@H](Cc3cc4ccccc4[nH]3)n3cc([C@@H](N)Cc4ccc(O)cc4)nn3)CC2)n1`, for which the IC50 was 93 µM.

For `Cc1cc(C)n(-c2nc(NCCN(C)C)c3c4c(sc3n2)CCCC4)n1`, the IC50 was 37.9 µM.

`C=C1c2c(Cl)ccc(O)c2C(O)=C2C(=O)[C@]3(O)C(O)=C(C(N)=O)C(=O)[C@@H](N(C)C)[C@@H]3[C@@H](O)C12` (stereo partly drawn): the IC50 is 0.24 µM.

Regarding `CC(C)(C)/C(O)=C/c1nc2cc(Cl)ccc2oc1=O`, the IC50 is 24.2 µM.

`Cc1c(Cl)cccc1Nc1nc(NCCO)c2ccccc2n1`: the IC50 was 40.1 µM.

In the case of `C[C@@H](NC(=O)/C(C#N)=C/c1ccc(O)c(O)c1)c1ccccc1`, the IC50 was 84.3 µM.

In the case of `COc1cc(/C=N/NC(=O)c2cncc(Br)c2)cc([N+](=O)[O-])c1O`, the IC50 is 19.1 µM.

Consider `O=C(CSc1nnc(-c2ccccc2)n1-c1ccc(Cl)cc1)NC1CCS(=O)(=O)C1` (stereo not drawn), for which the IC50 is 44.3 µM.

In the case of `O=C(N/N=C/c1ccc(N2CCCC2)c([N+](=O)[O-])c1)c1cccnc1`, the IC50 was 104 µM.

`Cc1ccc(C(=O)NNC(=S)NC(=O)COc2ccccc2)cc1`: the IC50 is 63.9 µM.

Consider `Oc1c(Br)cc(Br)cc1C=Nc1ccc2[nH]ncc2c1`, for which the IC50 is 21.8 µM.

As for `CN1CCN(c2c(F)cc3c(=O)c(C(=O)O)cn4c3c2OCN4C)CC1`, the IC50 is below 0.55 µM.

With `NCCCCCc1nnc(SCc2ccc(Cl)cc2Cl)o1`, the concentration for half-maximal inhibition (IC50) was 98.3 µM.

Take `Cc1ccc(S(=O)(=O)NNc2ccccc2)c(C)c1`: the IC50 is 42.7 µM.

For the compound `CN(C)CC/C=C1\c2ccccc2Sc2ccc(Cl)cc21`, the IC50 is 60 µM.

As to `[O-][n+]1cccc2c(Br)cc(Br)c(O)c21`, the IC50 is 36.6 µM.

As for `O=C(/C=C/c1cccs1)NC(=S)NNC(=O)c1ccccc1O`, the IC50 was 26.1 µM.

Turning to `COc1c(N2CCN[C@H](C)C2)c(F)cc2c(=O)c(C(=O)O)cn(C3CC3)c12`, the IC50 was 4.98 µM.

`CC(C(=O)NC1CCS(=O)(=O)C1)N1C(=O)/C(=C/c2ccc(Cl)cc2)SC1=S` (stereo not drawn): the IC50 is 18.2 µM.

On to `O=C(C[n+]1cc(-c2ccccc2)n2c1CCC2)Nc1nc(-c2ccc(F)cc2)cs1`, for which the IC50 is 37 µM.

Turning to `CC[C@@H](C)[C@H](CNC)NC[C@@H](Cc1cccc2ccccc12)NCCc1cccc(C(F)(F)F)c1`, the IC50 is 18.8 µM.

In the case of `COc1cccc(Nc2nc(NCCO)c3ccccc3n2)c1`, the IC50 was 57.8 µM.

Regarding `COC(=O)C1=C(C)N(Cc2ccccc2)C(=NCc2cccc(C(F)(F)F)c2)N[C@H]1c1cccc(F)c1`, the IC50 is 35.3 µM.

On to `C(=N/Nc1nccs1)/c1cccnc1`, for which the IC50 was 49.5 µM.

Take `CCN(CC(O)COc1ccc(OCC(O)CN(CC)C2CCCCC2)cc1)C1CCCCC1` (stereo not drawn): the IC50 was 52.4 µM.

For `CCn1cc(C(=O)NCCN(C)C)c(=O)c2cc(F)c(N3CCN(C)CC3)cc21`, the IC50 was 52.8 µM.

In the case of `Cc1cc([N+](=O)[O-])nn1CC(=O)N/N=C/c1ccccc1O`, the IC50 is 35.3 µM.

As to `O=c1c(O)cccc2cc(O)c(O)c(O)c12`, the IC50 is 18.5 µM.

In the case of `CCn1cc(C(=O)O)c(=O)c2cc(F)c(N3CCNCC3)cc21`, the IC50 was 0.49 µM.

For the compound `O=C(Cn1nc(C(F)F)cc1C(F)F)NNC(=S)Nc1ccc([N+](=O)[O-])cc1`, the IC50 is 69.1 µM.

As to `N=c1n(CCN2CCCCC2)c2ccccc2n1CC(=O)c1ccc(Cl)c(Cl)c1`, the IC50 was 16.4 µM.

As for `CN1CCc2nc(SCC(=O)Nc3ccc(Cl)cc3)c(C#N)cc2C1`, the IC50 is 93.5 µM.

In the case of `O=C(Cn1cnc2ccccc21)Nc1ccc(SC(F)F)cc1`, the IC50 was 143 µM.

Turning to `O=[N+]([O-])c1ccc(O)c(/C=N/Nc2ccccn2)c1`, the IC50 was 9.31 µM.

Consider `CN(C)[C@@H]1C(=O)C(C(N)=O)=C(O)[C@@]2(O)C(=O)C3=C(O)c4c(O)cccc4[C@@](C)(O)C3[C@H](O)C12` (stereo partly drawn), for which the IC50 was 0.31 µM and 1.78 µM.

In the case of `O=C(N/N=C/c1ccc([N+](=O)[O-])o1)c1ccc(O)cc1`, the IC50 was 37.6 µM.

`Cc1ccc(NC2=NCCCS2)cc1Cl`: the IC50 is 126 µM.

Take `CC(NCc1ccc(-c2ccccc2)cc1)C(O)c1ccccc1` (stereo not drawn): the half-inhibitory concentration (IC50) was 39 µM.

Consider `O=C(O)c1sccc1Oc1ccc(F)cc1[N+](=O)[O-]`, for which the IC50 was 13.1 µM.
